Data on 19 compounds can be found in patent publication US11851440B2, “Modulators of eukaryotic initiation factor 2B, compositions and methods” (Denali Therapeutics Inc., priority 2017, dated 2023).

The term IC50 denotes the concentration needed to halve the response being measured.

Each structure is given as a SMILES string.

The assay deals with ISR pathway (ATF4 translation). The assay can be described thus: ATF4 Nano Luciferase reporter integrated stress response (ISR) assay in H4 ATF4-NLuc cells. The note with it: Homo sapiens, read-out: Activity (IC50), H4 ATF4-NLuc (clone 17) cells; compound 30 minutes, then 50 um sodium arsenite for 6 hours; luminescence readout. A general note: Reporter assays use an easily measured gene product as a stand-in for the process of interest.

In the case of `O=C(CO[C@H]1C[C@@H](COC(F)(F)F)C1)NC12CC(c3nnc([C@H]4C[C@@H](OC(F)(F)F)C4)o3)(C1)C2` [Example 89, N-[3-[5-[3-cis-(trifluoromethoxy)cyclobutyl]-1,3,4-oxadiazol-2-yl]-1-bicyclo[1.1.1]pentanyl]-2-[3-cis-(trifluoromethoxymethyl)cyclobutoxy]acetamide], the IC50 is under 1 µM.
With `O=C(COc1ccc(Cl)c(F)c1)NC12CC(c3nnc(C4(F)CN(CC(F)(F)F)C4)o3)(C1)C2` [Example 93, 2-(4-chloro-3-fluoro-phenoxy)-N-[3-[5-[3-fluoro-1-(2,2,2-trifluoroethyl)azetidin-3-yl]-1,3,4-oxadiazol-2-yl]-1-bicyclo[1.1.1]pentanyl]acetamide], the IC50 was under 1 µM.
The result for `O=C(COCCOC(F)(F)F)NC12CC(c3nnc([C@H]4C[C@@H](OC(F)(F)F)C4)o3)(C1)C2` [Example 94, N-[3-[5-[3-cis-(trifluoromethoxy)cyclobutyl]-1,3,4-oxadiazol-2-yl]-1-bicyclo[1.1.1]pentanyl]-2-[2-(trifluoromethoxy)ethoxy]acetamide] reads 1 to 10 µM; that for `O=C(CO[C@H]1C[C@H](OC(F)(F)F)C1)NC12CC(c3nnc([C@H]4C[C@@H](OC(F)(F)F)C4)o3)(C1)C2` [Example 95, 2-[3-trans-(trifluoromethoxy)cyclobutoxy]-N-[3-[5-[3-cis-(trifluoromethoxy)cyclobutyl]-1,3,4-oxadiazol-2-yl]-1-bicyclo[1.1.1]pentanyl]acetamide], under 1 µM; that for `Cc1nc(C2CC(OC(F)(F)F)C2)cn1C12CC(NC(=O)CO[C@H]3C[C@@H](OC(F)(F)F)C3)(C1)C2` (stereo partly drawn) [Example 96, N-[3-[2-methyl-4-[3-(trifluoromethoxy)cyclobutyl]imidazol-1-yl]-1-bicyclo[1.1.1]pentanyl]-2-[3-cis-(trifluoromethoxy)cyclobutoxy]acetamide], under 1 µM.
To `O=C(COCc1cncc(Cl)c1)NC12CC(c3nnc([C@H]4C[C@@H](OC(F)(F)F)C4)o3)(C1)C2` [Example 97, 2-[(5-chloro-3-pyridyl)methoxy]-N-[3-[5-[3-cis-(trifluoromethoxy)cyclobutyl]-1,3,4-oxadiazol-2-yl]-1-bicyclo[1.1.1]pentanyl]acetamide] belongs 1 to 10 µM; to `O=C(NC12CC(c3nnc([C@H]4C[C@@H](OC(F)(F)F)C4)o3)(C1)C2)c1cc(C2CC2)on1` [Example 98, 5-cyclopropyl-N-[3-[5-[3-cis-(trifluoromethoxy)cyclobutyl]-1,3,4-oxadiazol-2-yl]-1-bicyclo[1.1.1]pentanyl]isoxazole-3-carboxamide], 1 to 10 µM; to `O=C(NC12CC(c3nnc([C@H]4C[C@@H](OC(F)(F)F)C4)o3)(C1)C2)C1=NO[C@@H](c2ccccc2)C1` [Example 99, cis-(R)-5-phenyl-N-(3-(5-(3-(trifluoromethoxy)cyclobutyl)-1,3,4-oxadiazol-2-yl)bicyclo[1.1.1]pentan-1-yl)-4,5-dihydroisoxazole-3-carboxamide], over 10 µM.
`O=C(NC12CC(c3nnc([C@H]4C[C@@H](OC(F)(F)F)C4)o3)(C1)C2)C1=NO[C@H](c2ccccc2)C1` [Example 100, cis-(S)-5-phenyl-N-(3-(5-(3-(trifluoromethoxy)cyclobutyl)-1,3,4-oxadiazol-2-yl)bicyclo[1.1.1]pentan-1-yl)-4,5-dihydroisoxazole-3-carboxamide]: the IC50 was under 1 µM.
To `O=C(NC12CC(c3nnc([C@H]4C[C@@H](OC(F)(F)F)C4)o3)(C1)C2)c1cc2cccn2cn1` [Example 101, N-[3-[5-[3-cis-(trifluoromethoxy)cyclobutyl]-1,3,4-oxadiazol-2-yl]-1-bicyclo[1.1.1]pentanyl]pyrrolo[1,2-c]pyrimidine-3-carboxamide] belongs 1 to 10 µM; to `O=C(NC12CC(c3nnc([C@H]4C[C@@H](OC(F)(F)F)C4)o3)(C1)C2)c1cn2cc(Cl)ccc2n1` [Example 103, 6-chloro-N-[3-[5-[3-cis-(trifluoromethoxy)cyclobutyl]-1,3,4-oxadiazol-2-yl]-1-bicyclo[1.1.1]pentanyl]imidazo[1,2-a]pyridine-2-carboxamide], under 1 µM; to `O=C(NC12CC(c3nnc([C@H]4C[C@@H](OC(F)(F)F)C4)o3)(C1)C2)c1cn2ccc(Cl)cc2n1` [Example 104, 7-chloro-N-[3-[5-[3-cis-(trifluoromethoxy)cyclobutyl]-1,3,4-oxadiazol-2-yl]-1-bicyclo[1.1.1]pentanyl]imidazo[1,2-a]pyridine-2-carboxamide], under 1 µM.
For `O=C(COc1cccc(F)c1)NC12CC(c3nnc([C@H]4C[C@@H](OC(F)(F)F)C4)o3)(C1)C2` [Example 105, 2-(3-fluorophenoxy)-N-[3-[5-[3-cis-(trifluoromethoxy)cyclobutyl]-1,3,4-oxadiazol-2-yl]-1-bicyclo[1.1.1]pentanyl]acetamide], the IC50 was under 1 µM.
Consider `O=C(CO[C@H]1C[C@@H](OC(F)(F)F)C1)NC12CC(c3nnc([C@H]4C[C@@H](COC(F)(F)F)C4)o3)(C1)C2` [Example 106, 2-[3-cis-(trifluoromethoxy)cyclobutoxy]-N-[3-[5-[3-cis-(trifluoromethoxymethyl)cyclobutyl]-1,3,4-oxadiazol-2-yl]-1-bicyclo[1.1.1]pentanyl]acetamide], for which the IC50 is under 1 µM.
To `O=C(CO[C@H]1C[C@@H](OC(F)(F)F)C1)NC12CC(c3nnc(C4CC(COC(F)(F)F)C4)o3)(C1)C2` (stereo partly drawn) [Example 107, 2-[3-cis-(trifluoromethoxy)cyclobutoxy]-N-[3-[5-[3-trans-(trifluoromethoxymethyl)cyclobutyl]-1,3,4-oxadiazol-2-yl]-1-bicyclo[1.1.1]pentanyl]acetamide] belongs under 1 µM; to `O=C(NC12CC(c3nnc([C@H]4C[C@@H](OC(F)(F)F)C4)o3)(C1)C2)OCc1ccc(Cl)cc1` [Example 110, (4-chlorophenyl)methyl-N-[3-[5-[3-cis-(trifluoromethoxy)cyclobutyl]-1,3,4-oxadiazol-2-yl]-1-bicyclo[1.1.1]pentanyl]carbamate], under 1 µM; to `O=C(NC12CC(c3nnc([C@H]4C[C@H](OC(F)(F)F)C4)o3)(C1)C2)OCc1ccc(Cl)cc1` [Example 111, (4-chlorophenyl)methyl-N-[3-[5-[3-trans-(trifluoromethoxy)cyclobutyl]-1,3,4-oxadiazol-2-yl]-1-bicyclo[1.1.1]pentanyl]carbamate], under 1 µM.
Take `O=C(CO[C@@H]1CC[C@H](OC(F)(F)F)C1)NC12CC(c3nnc([C@H]4C[C@@H](OC(F)(F)F)C4)o3)(C1)C2` [Example 114, N-[3-[5-[3-cis-(trifluoromethoxy)cyclobutyl]-1,3,4-oxadiazol-2-yl]-1-bicyclo[1.1.1]pentanyl]-2-[3-cis-(trifluoromethoxy)cyclopentoxy]acetamide]: the IC50 was 1 to 10 µM.
For `O=C(COC1CC2(CC2)C1)NC12CC(c3nnc([C@H]4C[C@@H](OC(F)(F)F)C4)o3)(C1)C2` [Example 115, 2-spiro[2.3]hexan-5-yloxy-N-[3-[5-[3-cis-(trifluoromethoxy)cyclobutyl]-1,3,4-oxadiazol-2-yl]-1-bicyclo[1.1.1]pentanyl]acetamide], the IC50 lay within 1 to 10 µM.
